Source: PubChem BioAssay (NCI)
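Grown in 96-well plates, cells were treated for 48 hours with each compound at five concentrations. Insufficient inhibition: endpoint recorded as highest concentration tested. TGI marks complete inhibition of growth.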

Columns and labels:
Experiment in all cases: growth of human tumour cells (NCI), 48 h
K-562 leukemia = system: K-562 leukemia
TK-10 renal = system: TK-10 renal
OVCAR-5 ovarian = system: OVCAR-5 ovarian
KM20L2 colon = system: KM20L2 colon
EKVX NSCLC = system: EKVX NSCLC
NCI-H522 lung = system: NCI-H522 lung
CCRF-CEM leukemia = system: CCRF-CEM leukemia
SNB-78 CNS = system: SNB-78 CNS
HCC-2998 colon = system: HCC-2998 colon
DMS 273 small cell lung = system: DMS 273 small cell lung
NCI-H460 lung = system: NCI-H460 lung
CAKI-1 renal = system: CAKI-1 renal
SNB-19 CNS = system: SNB-19 CNS
SK-MEL-28 melanoma = system: SK-MEL-28 melanoma
SK-OV-3 ovarian = system: SK-OV-3 ovarian
UACC-257 melanoma = system: UACC-257 melanoma
COLO 205 colon = system: COLO 205 colon
HL-60(TB) leukemia = system: HL-60(TB) leukemia
LOX IMVI melanoma = system: LOX IMVI melanoma
RXF 393 renal = system: RXF 393 renal
OVCAR-8 ovarian = system: OVCAR-8 ovarian
HCT-116 colon = system: HCT-116 colon
HCT-15 colon = system: HCT-15 colon
NCI-H23 lung = system: NCI-H23 lung
SNB-75 CNS = system: SNB-75 CNS
UACC-62 melanoma = system: UACC-62 melanoma
SK-MEL-2 melanoma = system: SK-MEL-2 melanoma
SF-295 CNS = system: SF-295 CNS
NCI-H226 lung = system: NCI-H226 lung
DMS 114 small cell lung = system: DMS 114 small cell lung
786-0 renal = system: 786-0 renal
HOP-18 NSCLC = system: HOP-18 NSCLC
KM12 colon = system: KM12 colon
SK-MEL-5 melanoma = system: SK-MEL-5 melanoma
HT29 colon = system: HT29 colon
HOP-62 NSCLC = system: HOP-62 NSCLC
A498 renal = system: A498 renal
HOP-92 NSCLC = system: HOP-92 NSCLC
SW-620 colon = system: SW-620 colon
UO-31 renal = system: UO-31 renal
M19-MEL melanoma = system: M19-MEL melanoma
RPMI-8226 leukemia = system: RPMI-8226 leukemia
SF-268 CNS = system: SF-268 CNS
U251 CNS = system: U251 CNS
ACHN renal = system: ACHN renal
SN12C renal = system: SN12C renal
SF-539 CNS = system: SF-539 CNS
MOLT-4 leukemia = system: MOLT-4 leukemia
M14 melanoma = system: M14 melanoma
IGROV1 ovarian = system: IGROV1 ovarian
XF 498 CNS = system: XF 498 CNS
LXFL 529 NSCLC = system: LXFL 529 NSCLC
MALME-3M melanoma = system: MALME-3M melanoma
A549 NSCLC = system: A549 NSCLC
DLD-1 colon = system: DLD-1 colon
OVCAR-4 ovarian = system: OVCAR-4 ovarian
OVCAR-3 ovarian = system: OVCAR-3 ovarian
SR leukemia = system: SR leukemia

C[N+](C)(C)CC(=O)N/N=C(/C=C/c1ccccc1)CC1OC(=O)c2ccccc21 (configuration not stated)
TGI (K-562 leukemia): > 100 µM
TGI (TK-10 renal): > 100 µM
TGI (OVCAR-5 ovarian): > 10 µM
TGI (KM20L2 colon): > 100 µM
TGI (EKVX NSCLC): > 100 µM
TGI (NCI-H522 lung): > 100 µM
TGI (CCRF-CEM leukemia): > 100 µM
TGI (SNB-78 CNS): > 100 µM
TGI (HCC-2998 colon): > 100 µM
TGI (DMS 273 small cell lung): > 100 µM
TGI (NCI-H460 lung): > 100 µM
TGI (CAKI-1 renal): > 100 µM
TGI (SNB-19 CNS): > 100 µM
TGI (SK-MEL-28 melanoma): > 100 µM
TGI (SK-OV-3 ovarian): > 100 µM
TGI (UACC-257 melanoma): > 100 µM
TGI (COLO 205 colon): > 100 µM
TGI (HL-60(TB) leukemia): > 100 µM
TGI (LOX IMVI melanoma): > 10 µM
TGI (RXF 393 renal): > 100 µM
TGI (OVCAR-8 ovarian): > 100 µM
TGI (HCT-116 colon): > 100 µM
TGI (HCT-15 colon): > 100 µM
TGI (NCI-H23 lung): > 10 µM
TGI (SNB-75 CNS): > 100 µM
TGI (UACC-62 melanoma): > 100 µM
TGI (SK-MEL-2 melanoma): > 100 µM
TGI (SF-295 CNS): > 10 µM
TGI (NCI-H226 lung): > 100 µM
TGI (DMS 114 small cell lung): > 100 µM
TGI (786-0 renal): > 100 µM
TGI (HOP-18 NSCLC): > 100 µM
TGI (KM12 colon): > 100 µM
TGI (SK-MEL-5 melanoma): > 100 µM
TGI (HT29 colon): > 10 µM
TGI (HOP-62 NSCLC): > 100 µM
TGI (A498 renal): > 100 µM
TGI (HOP-92 NSCLC): > 10 µM
TGI (SW-620 colon): > 100 µM
TGI (UO-31 renal): > 100 µM
TGI (M19-MEL melanoma): > 100 µM
TGI (RPMI-8226 leukemia): > 100 µM
TGI (SF-268 CNS): > 100 µM
TGI (U251 CNS): > 100 µM
TGI (ACHN renal): > 100 µM
TGI (SN12C renal): > 100 µM
TGI (SF-539 CNS): > 100 µM
TGI (MOLT-4 leukemia): > 100 µM
TGI (M14 melanoma): > 100 µM
TGI (IGROV1 ovarian): > 100 µM
TGI (XF 498 CNS): > 100 µM
TGI (LXFL 529 NSCLC): > 100 µM
TGI (MALME-3M melanoma): > 100 µM
TGI (A549 NSCLC): > 100 µM
TGI (DLD-1 colon): > 100 µM
TGI (OVCAR-4 ovarian): > 100 µM

COC1CCC(=C2C(=O)OC(C)(C)OC2=O)N1 (configuration not stated)
TGI (K-562 leukemia): > 100 µM
TGI (TK-10 renal): > 100 µM
TGI (OVCAR-5 ovarian): > 100 µM
TGI (KM20L2 colon): > 100 µM
TGI (EKVX NSCLC): > 100 µM
TGI (NCI-H522 lung): > 100 µM
TGI (CCRF-CEM leukemia): > 100 µM
TGI (HCC-2998 colon): > 100 µM
TGI (DMS 273 small cell lung): > 100 µM
TGI (NCI-H460 lung): > 100 µM
TGI (CAKI-1 renal): > 100 µM
TGI (SNB-19 CNS): > 100 µM
TGI (SK-MEL-28 melanoma): > 100 µM
TGI (SK-OV-3 ovarian): > 100 µM
TGI (UACC-257 melanoma): > 100 µM
TGI (COLO 205 colon): > 100 µM
TGI (HL-60(TB) leukemia): > 100 µM
TGI (LOX IMVI melanoma): > 100 µM
TGI (RXF 393 renal): > 100 µM
TGI (OVCAR-8 ovarian): > 100 µM
TGI (HCT-116 colon): > 100 µM
TGI (HCT-15 colon): > 100 µM
TGI (NCI-H23 lung): > 100 µM
TGI (SNB-75 CNS): > 100 µM
TGI (UACC-62 melanoma): > 100 µM
TGI (SK-MEL-2 melanoma): > 100 µM
TGI (SF-295 CNS): > 100 µM
TGI (NCI-H226 lung): > 100 µM
TGI (DMS 114 small cell lung): > 100 µM
TGI (786-0 renal): > 100 µM
TGI (HOP-18 NSCLC): > 100 µM
TGI (KM12 colon): > 100 µM
TGI (HT29 colon): > 100 µM
TGI (HOP-62 NSCLC): > 100 µM
TGI (SW-620 colon): > 100 µM
TGI (UO-31 renal): > 100 µM
TGI (M19-MEL melanoma): > 100 µM
TGI (RPMI-8226 leukemia): > 100 µM
TGI (SF-268 CNS): > 100 µM
TGI (U251 CNS): > 100 µM
TGI (ACHN renal): > 100 µM
TGI (SN12C renal): > 100 µM
TGI (SF-539 CNS): > 100 µM
TGI (MOLT-4 leukemia): > 100 µM
TGI (M14 melanoma): > 100 µM
TGI (IGROV1 ovarian): > 100 µM
TGI (XF 498 CNS): > 100 µM
TGI (LXFL 529 NSCLC): > 100 µM
TGI (MALME-3M melanoma): > 100 µM
TGI (A549 NSCLC): > 100 µM
TGI (DLD-1 colon): > 100 µM
TGI (OVCAR-4 ovarian): > 100 µM

COC(=O)C(=O)C(C#N)c1cccc2ccccc12 (configuration not stated)
TGI (K-562 leukemia): > 100 µM
TGI (OVCAR-5 ovarian): > 100 µM
TGI (KM20L2 colon): > 100 µM
TGI (EKVX NSCLC): > 100 µM
TGI (NCI-H522 lung): > 100 µM
TGI (CCRF-CEM leukemia): > 100 µM
TGI (SNB-78 CNS): > 100 µM
TGI (HCC-2998 colon): > 100 µM
TGI (DMS 273 small cell lung): > 100 µM
TGI (CAKI-1 renal): > 100 µM
TGI (OVCAR-3 ovarian): > 100 µM
TGI (SNB-19 CNS): > 100 µM
TGI (SK-MEL-28 melanoma): > 100 µM
TGI (SK-OV-3 ovarian): > 100 µM
TGI (UACC-257 melanoma): > 100 µM
TGI (COLO 205 colon): > 100 µM
TGI (HL-60(TB) leukemia): > 100 µM
TGI (LOX IMVI melanoma): > 100 µM
TGI (OVCAR-8 ovarian): > 100 µM
TGI (HCT-116 colon): > 100 µM
TGI (HCT-15 colon): > 100 µM
TGI (NCI-H23 lung): > 100 µM
TGI (SNB-75 CNS): > 100 µM
TGI (UACC-62 melanoma): > 100 µM
TGI (SR leukemia): > 100 µM
TGI (SF-295 CNS): > 100 µM
TGI (NCI-H226 lung): > 100 µM
TGI (DMS 114 small cell lung): > 100 µM
TGI (786-0 renal): > 100 µM
TGI (HOP-18 NSCLC): > 100 µM
TGI (KM12 colon): 99.7 µM
TGI (SK-MEL-5 melanoma): > 100 µM
TGI (HT29 colon): > 100 µM
TGI (HOP-62 NSCLC): > 100 µM
TGI (A498 renal): > 100 µM
TGI (HOP-92 NSCLC): > 100 µM
TGI (SW-620 colon): > 100 µM
TGI (UO-31 renal): > 100 µM
TGI (M19-MEL melanoma): > 100 µM
TGI (RPMI-8226 leukemia): > 100 µM
TGI (SF-268 CNS): > 100 µM
TGI (U251 CNS): > 100 µM
TGI (ACHN renal): > 100 µM
TGI (SN12C renal): > 100 µM
TGI (SF-539 CNS): > 100 µM
TGI (MOLT-4 leukemia): > 100 µM
TGI (M14 melanoma): > 100 µM
TGI (IGROV1 ovarian): > 100 µM
TGI (XF 498 CNS): > 100 µM
TGI (LXFL 529 NSCLC): > 100 µM
TGI (MALME-3M melanoma): > 100 µM
TGI (A549 NSCLC): > 100 µM
TGI (DLD-1 colon): > 100 µM
TGI (OVCAR-4 ovarian): > 100 µM
